Source: patent publication US12490760B2, “Compound and flavor-imparting composition using same” (T. HASEGAWA CO., LTD., priority 2021, dated 2025)

Assays:
[1] = Stability in sugar-acid solution, quantified by GC/MS internal standard method; assay type: physicochemical; conditions: 0.1% in sugar-acid solution (7% granulated sugar, 0.12% citric acid); room temperature (25° C.), 8 weeks, light shielding
Procedure: A stability of the present compound was evaluated by the following procedure. An aqueous solution including 7% granulated sugar and 0.12% citric acid (hereinafter, which may be referred to as a sugar-acid solution) was prepared. To this sugar-acid solution, the present invention product 1-1 was added so that the concentration was 0.1% to obtain the present invention product 3-1. As a comparative reference to the present compound, citral was added to a separately prepared sugar-acid solution so that the concentration was 0.1% to obtain the comparative product 3-1. Then, the present invention product 3-1 and the comparative product 3-1 were stored at room temperature (25° C.) for 8 weeks under light shielding. On the present invention product 3-1 and the comparative product 3-1, the present compound and citral were quantitatively analyzed by the internal standard method by using 2-chlorophenol as an internal standard substance under the following GC analysis conditions. The measurements were performed by using a GC/MS (apparatus name: GC 7890A/MSD 5975C, manufactured by Agilent Technologies Japan, Ltd.). […]

[2] = Aroma properties: 1% ethanol solutions sniffed by panelists; conditions: 1% ethanol solution; sniffed by 5 well-trained panelists; representative comments
Procedure: An aroma of the present compound was evaluated by the following procedure. A 1% ethanol solution of the present invention product 1-1 was prepared and used as the present invention product 2-1. As a comparative reference to the present compound, a 1% ethanol solution of citral was prepared and used as the comparative product 2-1, and a 1% ethanol solution of 4,8-dimethylnona-3,7-dien-2-one was prepared and used as the comparative product 2-2. 5 well-trained panelists having 10 years or more of experience sniffed at the present invention product 2-1 and the comparative products 2-1 and 2-2, and commented on felt aromas.

[3] = Detecting threshold concentration; conditions: compared with citral

concentration after storage relative to the initial concentration [1]	Compound	Comment (felt aromas) [2]	detecting threshold concentration [3]
completely disappeared	CC(C)=CCCC(C)=CC=O [citral, reference compound]	–	–
90%	C=C(CCC=C(C)C)CC(C)=O [present compound, 8-methyl-4-methylenenona-7-en-2-one]	does not have the aspect of floral aromas	the same level as that of citral
